The source of these data is US20140154332A1, “FORMULAS COMPRISING HIGHLY SOLUBLE ELEMENTS AND VITAMIN FOR THE PREVENTION AND AMELIORATION OF OSTEOPOROSIS” (SINOVEDA CANADA, INC., priority 2011, published 2014).

Data set [1] is described as follows: Calcium, magnesium and zinc balance study in rats receiving calcium free diet (cumulative net percentage, body weight, plasma levels). The conditions noted are these: for Cumulative net percentage of calcium / Cumulative net percentage of magnesium / Cumulative net percentage of zinc: n = 5 per group. The text has this:
(§1) Male Sprague-Dawley rats (about 6-7 weeks), with an initial weight between 220 g to 250 g, were randomly divided into different treatment groups. All the rats were housed in individual metabolic cages in a temperature-controlled room. Each rat received free access to the normal diet (Table 34) before the experiment. Both normal and calcium free diets (Table 34) were used in this set of studies. De-ionized water was provided ad libitum. All the rats were weighed before treatment.
(§2) Two sets of studies were performed: a normal diet and calcium free diet. In each study, there were seven treatment groups. […] Rats participating in the normal diet study received normal diet ad libitum throughout. Rats participating in the group of calcium free diet received the calcium free food ad libitum starting five days before and throughout treatment. In both study groups, animals received one dose a day for five days. Amounts of calcium, magnesium and zinc in individual formulation and in each diet were determined using ICP-OES. Values of dosage and dietary intake were measured for the calculation of elemental balance. […] Daily elemental dosages, similar to that of human's, are 53.14 mg/kg for calcium, 0.38 to 55 mg/kg/day for magnesium and 0.017 to 2.5 mg/kg/day for zinc. […] The vehicle for preparing each dose was de-ionized water. The concentration of calcium in all dosage preparations was 15.94 mg/mL. One mL of each preparation was administered by gavage. Body weight, elemental dosage and diet consumption were recorded daily.
(§3) Animals were housed individually in a metabolic cage five days before the study. Food consumption was evaluated daily. Urine and feces were collected daily for four days and the content of calcium, magnesium and zinc was determined. On Day 5, each animal received its treatment. These treatments were administered once a day for four days. After the last treatment, each animal was anesthetized shortly before peak elemental blood concentration was achieved. Blood was collected using a heparinized syringe via cardiac puncture. Immediately after blood collection, the animal was then sacrificed with an overdose of isoflourane. Each blood sample was centrifuged at 1900 rpm at room temperature; plasma was harvested and stored at −20° C. until analysis. Urine was measured daily; it was diluted with de-ionized water, filtered and an aliquot was stored at −20° C. until analysis. Daily fecal output was collected and lyophilized. Each sample was weighed and digested using a mixture of three volume of nitric acid and one volume of perchloric acid. For every gram of dried feces, 10 mL of acid mixture was added. Each sample was digested for three days. The volume of the digested sample was measured and an aliquot of the digest was stored at −20° C. until analysis. The content of calcium, magnesium and zinc in plasma, feces and urine were determined using ICP-OES.
(§4) Daily calcium balance was calculated using equation 1:
(§5) Ca Balance=total Ca intake(dose and dietary intake)−Ca excreted in urine−Ca excreted in feces (1)
(§6) While, percentage of Ca balance was determined using equation 2:
(§7) % Ca balance=Ca balance/(total Ca intake)×100% (2)
(§8) Cumulated calcium balance and % cumulated net calcium balance were calculated using equations (1) and (2), except, the sum of daily intake and excretion was used for calculation. The balance for magnesium and zinc was also calculated using the concept of equations (1) and (2). Cumulated elemental balance and % cumulated net elemental balance were calculated in a similar fashion as described above.
(§9) All results were analyzed using two-way ANOVA. […] The data are presented as mean±S.D. and mean±S.E.M. in tables and figures, respectively.

The nature of data set [2]: Calcium, magnesium and zinc balance study in rats receiving normal diet (cumulative net percentage, body weight, plasma levels). To be noted: for Body weight of rats: normal calcium diet, n = 5; for Cumulative net percentage of calcium / Cumulative net percentage of zinc / Net accumulative percentage of magnesium: normal diet, n = 5 per group.
From the text: as §1, §2, §3, §4, §5, §6, §7, §8, §9

For data set [3] the following is noted: 25 mg calcium load, 45Ca; cited from earlier work.
The conditions of data set [4]: humans; cited from earlier work.
For data set [5] the following is noted: dual isotope techniques; cited from earlier work.
For data set [6] the following is noted: rats; cited from earlier work.

For Calcium Acetate [Ca ACE], the “Cumulative net percentage of calcium” value is given as −30.6 ± 51.3% in data set [1] (Day 1, mean ± S.D.); −9.88 ± 26.5% in data set [1] (Day 2, mean ± S.D.); 4.88 ± 24.0% in data set [1] (Day 3, mean ± S.D.); 11.1 ± 20.0% in data set [1] (Day 4, mean ± S.D.); 14.4 ± 24.0% in data set [2] (Day 1, mean ± S.D.); 26.9 ± 9.0% in data set [2] (Day 2, mean ± S.D.). For the same compound, the “Cumulative net percentage of calcium” value in data set [2] (Day 3, mean ± S.D.) is 30.3 ± 4.9%; in data set [2] (Day 4, mean ± S.D.), 31.9 ± 3.0%. The “Cumulative net percentage of magnesium” value is −197.2 ± 105.2% in data set [1] (Day 1, mean ± S.D.); −150.4 ± 88.9% in data set [1] (Day 2, mean ± S.D.); −115.3 ± 62.7% in data set [1] (Day 3, mean ± S.D.); −93.6 ± 37.2% in data set [1] (Day 4, mean ± S.D.). The “Cumulative net percentage of zinc” value in data set [1] (Day 1, mean ± S.D.) is −107.1 ± 85.5%; in data set [1] (Day 2, mean ± S.D.), −77.7 ± 59.0%; in data set [1] (Day 3, mean ± S.D.) it was −65.7 ± 66.7%; in data set [1] (Day 4, mean ± S.D.), −50.5 ± 46.4%; in data set [2] (Day 1, mean ± S.D.) it was 27.5 ± 16.0^%; in data set [2] (Day 2, mean ± S.D.), 40.9 ± 7.3%. Further, the “Cumulative net percentage of zinc” value in data set [2] (Day 3, mean ± S.D.) is recorded as 45.6 ± 5.9%; in data set [2] (Day 4, mean ± S.D.) it was 48.4 ± 4.4%. Moreover, the “Body weight of rats” value is listed as 202.4 ± 9.3 g in data set [1] (Day 1, n = 5); 194.8 ± 9.3^$ g in data set [1] (Day 2, n = 5); 196.8 ± 10.9 g in data set [1] (Day 3, n = 5); 193.4 ± 11.9^$ g in data set [1] (Day 4, n = 5); 188.0 ± 12.2^$ g in data set [1] (Day 5, n = 5); 242.0 ± 7.4 g in data set [2] (Day 1, mean ± S.D.). Moreover, the “Body weight of rats” value in data set [2] (Day 2, mean ± S.D.) is 237.0 ± 12.5 g; in data set [2] (Day 3, mean ± S.D.) it was 239.2 ± 13.9 g; in data set [2] (Day 4, mean ± S.D.) it was 238.6 ± 13.9 g; in data set [2] (Day 5, mean ± S.D.), 244.0 ± 12.8 g. For the same compound, the magnesium balance result in data set [1] (rats) is “net loss of magnesium”. The “Net accumulative percentage of magnesium” value in data set [2] (Day 1, mean ± S.D.) is given as 16.7 ± 17.2^%; in data set [2] (Day 2, mean ± S.D.), 29.9 ± 3.8%; in data set [2] (Day 3, mean ± S.D.) it was 34.3 ± 2.5%; in data set [2] (Day 4, mean ± S.D.) it was 37.7 ± 2.7%. Also, the Bioavailability of calcium in data set [3] is reported as 45%.

Regarding `O=C([O-])[O-].[Ca+2]` [calcium carbonate], in data set [4], the average amount absorbed is 24%.

As to `[O]=[Zn]` [zinc oxide], the bioavailability of zinc result in data set [5] is “approximately 24%”.

As for Magnesium gluconate, the bioavailability of magnesium result in data set [6] was “highest value”.

As for calcium ascorbate, the Bioavailability of calcium in data set [3] was 70%.
